The record followed here is patent US10316017B2, “COT modulators and methods of use thereof” (Gilead Sciences, Inc., priority 2015, dated 2019).

Assay [1] has as its target T1, human Cot catalytic domain (30-397 amino acids) (Homo sapiens, UniProt P41279).
T1 construct: Purified recombinant human Cot catalytic domain (30-397 amino acids) was purchased from Cama Biosciences; purchased Cama Biosciences (so in the source)
The experiment in a line: High Throughput Cot Biochemical Assay (KinEASE TR-FRET). Particulars: 400 μM ATP. Summed up:
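Recombinant human Cot catalytic domain (aa 30-397), 5 nM, with 1 μM STK3 peptide and 400 μM ATP in MOPS pH 7.0 buffer with MgOAc, DTT, BSA, NP-40, glycerol, 0.1% DMSO. Phosphorylated XL665-peptide detected by Eu-[…] antibody TR-FRET.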
For orientation: TR-FRET usually uses a lanthanide donor and a delayed reading to cut background.

The target of assay [2] is T2, Human EGFR, cytoplasmic domain [669-1210] (Homo sapiens, UniProt P00533).
T2 construct: purchased Cama Biosciences (so in the source)
As to the kind of experiment: High Throughput EGFR Biochemical Assay (KinEASE TR-FRET). The method, then: Example 62: High Throughput EGFR Biochemical Assay
EGFR activity was measured using KinEASE (Cisbio), a time-resolved fluorescence resonance energy transfer (TR-FRET) immunoassay. In this assay, EGFR-catalyzes the phosphorylation of a universal Tyrosine kinase peptide substrate labeled with XL665. Europium conjugated phosphor-tyrosine specific antibody binds the resulting phosphorylated peptide. Formation of phosphorylated peptide is quantified by TR-FRET with Europium as the donor and XL665 the acceptor. The assay was performed in two main steps. The first step is the kinase reaction step and the second step is the detection step with TR-FRET reagents. In brief, test compounds 1:3 serially diluted in DMSO were delivered into Corning white, low volume, non-binding 384 well plates using the Echo 550 acoustic liquid dispenser (Labcyte®). […] After 60 min of incubation at room temperature, 10 μL of Stop and Detect Solution (1:400 Europium Cryptate labeled anti-phosphorylated peptide antibody solution and 125 nM strepavidin-XL665 Tracer in a 50 mM Hepes pH 7.0 detection buffer containing sufficient EDTA) was added.

Assay [3] concerns TNFα production in LPS-stimulated human monocytes. As to the kind of experiment: Cot Monocyte TNFα Cell Based Assay. Particulars: for IC50/EC50 [nM]: EC50 (TNFα, monocytes): second value of the cell IC50/EC50, human monocytes, 50 pg/ml LPS, 4 hours; for EC50: Homo sapiens, Monocyte, LPS-stimulated human monocytes, TNFα TR-FRET, read-out: EC50 TNF. The procedure, abridged: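 Human monocytes (5,000 cells/well) pretreated with compound for 1 hour at 37° C (0.5% DMSO), then stimulated with 50 pg/ml LPS for 4 hours. Total TNFα measured by TR-FRET after overnight antibody incubation at room temp, expressed as percent of control between unstimulated and stimulated cells.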

The mark [4] stands for this setting: Cot KinEASE TR-FRET, read-out: IC50 HTRF.

Like-named read-outs stand apart in the source and are kept apart here.

T2 sequence (P00533 669-1210): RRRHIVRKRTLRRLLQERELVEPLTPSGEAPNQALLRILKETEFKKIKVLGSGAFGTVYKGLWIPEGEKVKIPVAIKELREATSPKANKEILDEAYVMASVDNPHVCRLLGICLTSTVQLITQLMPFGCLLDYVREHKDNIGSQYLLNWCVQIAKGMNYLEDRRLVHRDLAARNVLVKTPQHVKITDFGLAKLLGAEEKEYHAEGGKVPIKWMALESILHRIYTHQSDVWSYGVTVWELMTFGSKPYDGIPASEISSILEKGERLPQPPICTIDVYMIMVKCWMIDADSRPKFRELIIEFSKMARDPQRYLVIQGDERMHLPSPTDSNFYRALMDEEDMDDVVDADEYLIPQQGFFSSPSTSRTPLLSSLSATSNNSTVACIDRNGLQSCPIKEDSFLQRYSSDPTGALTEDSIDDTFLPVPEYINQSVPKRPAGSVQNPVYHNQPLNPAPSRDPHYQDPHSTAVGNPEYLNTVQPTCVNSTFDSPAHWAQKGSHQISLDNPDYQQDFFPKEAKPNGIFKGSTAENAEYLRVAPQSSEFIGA
T1 sequence (P41279 30-397): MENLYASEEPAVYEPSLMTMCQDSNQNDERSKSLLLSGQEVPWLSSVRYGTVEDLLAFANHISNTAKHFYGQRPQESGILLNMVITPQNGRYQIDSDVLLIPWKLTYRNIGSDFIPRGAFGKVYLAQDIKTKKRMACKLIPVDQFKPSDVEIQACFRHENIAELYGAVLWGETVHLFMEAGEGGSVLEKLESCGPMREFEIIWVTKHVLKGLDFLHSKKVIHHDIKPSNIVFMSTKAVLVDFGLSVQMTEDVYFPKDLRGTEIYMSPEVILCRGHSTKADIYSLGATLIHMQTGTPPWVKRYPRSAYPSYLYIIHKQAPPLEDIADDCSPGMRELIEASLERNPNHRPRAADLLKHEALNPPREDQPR

Take `Cn1cc(CNc2cc(Cl)c3ncc(C#N)c(Nc4ccc(F)c(Cl)c4)c3c2)nn1` [Comparative Example 3, reference compound]: the IC50 in assay [1] (IC50/EC50 [nM]: IC50 (Cot), first value of the cell IC50/EC50, 5 nM Cot) is 67 nM; in assay [2], over 10000 nM. The “IC50/EC50 [nM]: EC50 (TNFα, monocytes)” value in assay [3] is on record as over 10000 nM.

Consider `CC(Nc1cc(Cl)c2ncc(C#N)c(Nc3ccc(F)c(Cl)c3)c2c1)c1cn(C)nn1` (stereo not drawn) [Comparative Example 4, reference compound], for which the IC50 is over 10000 nM in assay [1] (first value of the cell IC50/EC50, 5 nM Cot, read-out: IC50/EC50 [nM]: IC50 (Cot)) and over 10000 nM in assay [2].

Broadly, the EC50 is the concentration needed to bring the measured effect to its halfway point. As to `CCN1CCC(n2cc([C@@H](Nc3cc(Cl)c4ncc(C#N)c(Nc5ccc(F)c(Cl)c5)c4c3)c3ccccc3)nn2)CC1` [Example 919, (S)-8-chloro-4-((3-chloro-4-fluorophenyl)amino)-6-(((1-(1-ethylpiperidin-4-yl)-1H-1,2,3-triazol-4-yl)(phenyl)methyl)amino) quinoline-3-carbonitrile], the IC50 in assay [1] (setting [4]) is 2 nM. This molecule also came in with an IC50 in assay [2] of 2290 nM. Also, in assay [3], the 50% effective concentration (EC50) worked out at 62 nM and the “IC50/EC50 [nM]: EC50 (TNFα, monocytes)” value came out at 62 nM.

`Cn1cc(C(Nc2cc(Cl)c3ncc(C#N)c(Nc4ccc(F)c(Cl)c4)c3c2)c2ccccc2)nn1` (stereo not drawn) [Example 920, 8-chloro-4-((3-chloro-4-fluorophenyl)amino)-6-(((1-methyl-1H-1,2,3-triazol-4-yl)(phenyl)methyl)amino) quinoline-3-carbonitrile]: the IC50 in assay [1] (setting [4]) was 10 nM; in assay [2] it was over 10000 nM. For the same molecule, the concentration for a half-maximal effect (EC50) in assay [3] is 215 nM. Moreover, the “IC50/EC50 [nM]: EC50 (TNFα, monocytes)” value in assay [3] came out at 215 nM.

Take `Cc1nnc(C2(n3cc([C@@H](Nc4cc(C#N)c5ncc(C#N)c(NCC(C)(C)C)c5c4)c4ccccc4Cl)nn3)CC2)o1` [Example 1161, (S)-6-(((2-chlorophenyl)(1-(1-(5-methyl-1,3,4-oxadiazol-2-yl)cyclopropyl)-1H-1,2,3-triazol-4-yl)methyl)amino)-4-(neopentylamino)quinoline-3,8-dicarbonitrile]: the IC50 in assay [1] (setting [4]) amounted to 14 nM. Also, the EC50 in assay [3] is 45 nM.

On to `Cc1c(-c2ccn(C)n2)cccc1[C@H](Nc1cc(Cl)c2ncc(C#N)c(NCC(C)(C)C)c2c1)c1cn(C2(C(F)(F)F)CC2)nn1` [Example 1162, (S)-8-chloro-6-(((2-methyl-3-(1-methyl-1H-pyrazol-3-yl)phenyl) (1-(1-(trifluoromethyl)cyclopropyl)-1H-1,2,3-triazol-4-yl)methyl)amino)-4-(neopentylamino)quinoline-3-carbonitrile], for which the IC50 in assay [1] (setting [4]) was 16 nM. The EC50 in assay [3] is 477 nM.

For the molecule `Cc1c(-c2cc[nH]n2)cccc1[C@H](Nc1cc(Cl)c2ncc(C#N)c(NCC(C)(C)C)c2c1)c1cn(C2(C(F)(F)F)CC2)nn1` [Example 1163, (S)-8-chloro-6-(((2-methyl-3-(1H-pyrazol-3-yl)phenyl)(1-(1-(trifluoromethyl)cyclopropyl)-1H-1,2,3-triazol-4-yl)methyl)amino)-4-(neopentylamino)quinoline-3-carbonitrile], the IC50 in assay [1] (setting [4]) was determined as 19 nM. The 50% effective concentration (EC50) in assay [3] was 463 nM.

For `Cc1c(-c2cn[nH]c2)cccc1[C@H](Nc1cc(Cl)c2ncc(C#N)c(NCC(C)(C)C)c2c1)c1cn(C2(C(F)(F)F)CC2)nn1` [Example 1164, (S)-8-chloro-6-(((2-methyl-3-(1H-pyrazol-4-yl)phenyl) (1-(1-(trifluoromethyl)cyclopropyl)-1H-1,2,3-triazol-4-yl)methyl)amino)-4-(neopentylamino) quinoline-3-carbonitrile], in assay [1] (setting [4]), the IC50 was found to be 13 nM. For the same molecule, the EC50 in assay [3] amounted to 66 nM.

`Cc1c(-c2cnco2)cccc1[C@H](Nc1cc(Cl)c2ncc(C#N)c(NCC(C)(C)C)c2c1)c1cn(C2(C(F)(F)F)CC2)nn1` [Example 1165, (S)-8-chloro-6-(((2-methyl-3 (oxazol-5-yl)phenyl)(1-(1-(trifluoromethyl)cyclopropyl)-1H-1,2,3-triazol-4-yl)methyl)amino)-4-(neopentylamino)quinoline-3-carbonitrile]: the IC50 in assay [1] (setting [4]) was 9 nM. Moreover, the EC50 in assay [3] was found to be 102 nM.

For the molecule `Cc1c(-c2cn[nH]c2)cccc1[C@H](Nc1cc(Cl)c2ncc(C#N)c(NCC(C)(C)C)c2c1)c1cn(C2(C(F)F)CC2)nn1` [Example 1166, (S)-8-chloro-6-(((1-(1-(difluoromethyl)cyclopropyl)-1H-1,2,3-triazol-4-yl) (2-methyl-3-(1H-pyrazol-4-yl)phenyl)methyl)amino)-4-(neopentylamino)quinoline-3-carbonitrile], in assay [1] (setting [4]), the IC50 amounted to 5 nM. Moreover, the concentration giving a half-maximal response (EC50) in assay [3] was determined as 47 nM.

With `Cc1c(-c2cnco2)cccc1[C@H](Nc1cc(Cl)c2ncc(C#N)c(NCC(C)(C)C)c2c1)c1cn(C2(C(F)F)CC2)nn1` [Example 1167, (S)-8-chloro-6-(((1-(1-(difluoromethyl)cyclopropyl)-1H-1,2,3-triazol-4-yl)(2-methyl-3-(oxazol-5-yl)phenyl)methyl)amino)-4-(neopentylamino)quinoline-3-carbonitrile], the IC50 in assay [1] (setting [4]) turned out to be 5 nM. Further, the 50% effective concentration (EC50) in assay [3] worked out at 62 nM.

`Cc1c(C#N)cccc1[C@H](Nc1cc(Cl)c2ncc(C#N)c(NCC(C)(C)C)c2c1)c1nnn(C2(C(F)F)CC2)c1F` [Example 1168, (S)-8-chloro-6-(((3-cyano-2-methylphenyl)(1-(1-(difluoromethyl)cyclopropyl)-5-fluoro-1H-1,2,3-triazol-4-yl)methyl)amino)-4-(neopentylamino)quinoline-3-carbonitrile]: the IC50 in assay [1] (setting [4]) turned out to be 4 nM. Moreover, the half-maximal effective concentration (EC50) in assay [3] was 75 nM.

For the molecule `CC(C)(C)CNc1c(C#N)cnc2c(Cl)cc(N[C@@H](c3ccccc3Cl)c3nnn(C4(C)CC4)c3F)cc12` [Example 1169, (S)-8-chloro-6-(((2-chlorophenyl)(5-fluoro-1-(1-methylcyclopropyl)-1H-1,2,3-triazol-4-yl)methyl)amino)-4-(neopentylamino)quinoline-3-carbonitrile], the IC50 in assay [1] (setting [4]) was 234 nM. In assay [3], the EC50 was at least 1000 nM.

Regarding `COc1c([C@@H](Nc2cc(Cl)c3ncc(C#N)c(NCC(C)(C)C)c3c2)c2ccccc2Cl)nnn1C1(C)CC1` [Example 1170, (S)-8-chloro-6-(((2-chlorophenyl)(5-methoxy-1-(1-methylcyclopropyl)-1H-1,2,3-triazol-4-yl)methyl)amino)-4-(neopentylamino)quinoline-3-carbonitrile], the IC50 in assay [1] (setting [4]) is 217 nM. Also, the EC50 in assay [3] was at least 1000 nM.
